Experiment [1] relates to Human breast cancer MDA-MB435. Description: Multiple tumor models in nude mice: MDA-MB435. Type of experiment: in vivo. Particulars: 15 mg/kg once weekly for three weeks, Day 26. As for the experimental part:
(§1) 1) Corresponding tumor cells were purchased from American type culture collection (ATCC) and identified according the specification provided by ATCC. Cells were cultivated in DMEM culture solution containing 10% fetal bovine serum at 37° C. and 5% CO2. The cells were passaged for every three days and cells within the 15th passage were used.
(§2) 2) Production of tumor. 5×10^6 corresponding cells were subcutaneously injected to the back of the nude mice. Mice were randomly grouped after the tumor reached at least 100 mm^3. Then treatment began and the day on which the treatment began was day 1.
(§3) 3) Course of treatment. […] The control group was administered by physiological saline. Animals were administered once weekly for three weeks.
(§4) 3) Course of treatment. According to the clinical application of A1, A1 was administered in a dose of ⅙ MTD, i.v., 17.6 μmol/kg. The control group was administered by physiological saline. Animals were administered once weekly for three weeks.
(§5) 3) Course of treatment. According to the clinical application of B1, B1 was administered in a dose of ⅙ MTD, i.v., 17.6 μmol/kg. The control group was administered by physiological saline. Animals were administered once weekly for three weeks.
as §3, §3

Another experiment has as its system Human colon cancer HT-29. Kind of experiment: Multiple tumor models in nude mice: HT-29. It counts as in vivo. To be noted: 15 mg/kg once weekly for three weeks, Day 26. As for the experimental part:
as §1, §2, §3, §4, §5, §3, §3

For experiment [2], the system named is Human chronic leukemia K562. Description: Multiple tumor models in nude mice: K562. It counts as in vivo. To be noted: 15 mg/kg once weekly for three weeks, Day 26. The method, then: as §1, §2, §3, §4, §5, §3, §3
Experiment [3] in a line: Multiple tumor models in nude mice: HT1080. Type of experiment: in vivo. To be noted: Human colon caner HT1080; 15 mg/kg once weekly for three weeks; Day 26. As for the experimental part: as §1, §2, §3, §4, §5, §3, §3
Experiment [4] has as its system Human pancreatic cancer Panc-1. Kind of experiment: Multiple tumor models in nude mice: Panc-1. To be noted: 15 mg/kg once weekly for three weeks, Day 26. It counts as in vivo. As for the experimental part:
as §1, §2, §3, §4, §5, §3, §3

Experiment [5] has as its system Human non-small cell lung cancer A549. Kind of experiment: Multiple tumor models in nude mice: A549. It counts as in vivo. To be noted: 15 mg/kg once weekly for three weeks, Day 26. As for the experimental part:
as §1, §2, §3, §4, §5, §3, §3

In another experiment the test system is Human liver cancer Hepg2. Kind of experiment: Multiple tumor models in nude mice: Hepg2. Particulars: 15 mg/kg once weekly for three weeks, Day 26. Type of experiment: in vivo. The method, then:
as §1, §2, §3, §4, §5, §3, §3

The test system of experiment [6] is Human renal cancer OS-RC-2. Description: Multiple tumor models in nude mice: OS-RC-2. Type of experiment: in vivo. To be noted: 15 mg/kg once weekly for three weeks, Day 26. As for the experimental part: as §1, §2, §3, §4, §5, §3, §3
The test system of another experiment is Panc-1 cells. Kind of experiment: Tumor treatment in nude mice, Panc-1 model (Example 60). Type of experiment: in vivo. Particulars: for Size of tumor (mm^3) Day 10 / inhibitory rate on tumor Day 10 / Size of tumor (mm^3) Day 24 / inhibitory rate on tumor Day 24: Panc-1 in nude mice, IV once weekly for four weeks, E1-E4 15 mg/kg, mitomycin 2 mg/kg; for Inhibition on tumor growth, in words: Panc-1, compared with mitomycin group and control group. The method, then:
1) Panc-1 cells were purchased from American type culture collection (ATCC) and identified according the specification provided by ATCC. Cells were cultivated in DMEM culture solution containing 10% fetal bovine serum at 37° C. and 5% CO2. The cells were passaged for every three days and cells within the 15th passage were used.
2) Production of tumor. 5×10^6Panc-1 cells were subcutaneously injected to the back of the nude mice. Mice were randomly grouped after the tumor reached at least 100 mm^3. Then treatment began and the day on which the treatment began was day 1.
[…]. The control group was administered by physiological saline. Drugs were administered once weekly for four weeks.

Experiment [7] deals with scar and choroidal neovascularization (CNV). Description: Inhibition of scar and choroidal neovascularization (CNV) by eye drops after laser photocoagulation. To be noted: for Maximal scar radius observed by pathological staining (pixel): 150 mW laser photocoagulation, eye drops daily, two weeks, C57 mice; for Treatment effect on scar radius and inhibition of macrophage, in words: eye drops, compared to the control group and the mitomycin group. Type of experiment: in vivo, C57 mice. The method, then: Animal: C57 mice of 16 weeks old, all female and 8 animals in each group.
(§6) Production and treatment of scar. […] Two weeks later, eye tissues were taken from 4 animals of each group for immunohistochemical (HE) staining. For another 4 animals, they were subjected to fixed irradiation through photocoagulation by 50 mW laser and then to treatment. 48 hours later, their eye tissues were taken, homogenated, filtered to isolate individual cells in the scar and choroidal neovascularization (CNV) tissues. The cells were washed by buffer twice and stained by biotin-conjugated anti-F4/80 (biotin-labeled precursor cell antigen from macrophage) and FITC-conjugated anti-CD45 (isothiocyanate fluorescein labeled leucocyte common antigen) at ambient temperature for 1 hour. Then the cells were washed by PBS containing 1% fetal bovine serum twice and then analyzed for the ratio of the macrophage precursor antigen positive cells in the leucocyte common antigen (CD45) positive cells by flow cytometry.

For a further experiment, the system named is macrophage. Kind of experiment: Macrophage precursor antigen (F4/80) positive cells in CD45 positive cells of scar/CNV tissue, flow cytometry. It counts as in vivo, C57 mice. To be noted: 50 mW laser, 48 hours after treatment. The method, then: as §6
(In flow cytometry, cells or beads pass a laser one at a time.)

Each structure is given as a SMILES string.

For `COCCOCC(=O)N[C@H](C)C(=O)N[C@H](C)C(=O)N[C@H](CC(N)=O)C(=O)Nc1ccc(COC(=O)N2[C@@H]3CN4C5=C(C(=O)C(N)=C(C)C5=O)[C@H](COC(N)=O)[C@]4(OC)[C@@H]32)cc1` [Compound E1, 2-(2-methoxyethoxy) acetyl-L-Ala-L-Ala-L-Asn-4-amino benzyl mitomycin], the “inhibitory rate on tumor (Day 26)” value came to 86.3% in experiment [1]; 86.7% with Human colon cancer HT-29; 77.3% in experiment [2]; 95.4% in experiment [3]; 86.5% in [4]; 95.3% in [5]. Besides, the “inhibitory rate on tumor (Day 26)” value in the experiment with Human liver cancer Hepg2 is given as 85.7%; in experiment [6], 81.3%. Further, the “Size of tumor (mm^3) Day 10” value with Panc-1 cells came to 76.42 ± 14.96 mm^3. In the experiment with Panc-1 cells, the “inhibitory rate on tumor Day 10” value was found to be 35.7%. In addition, in the experiment with Panc-1 cells, the “Size of tumor (mm^3) Day 24” value is 84.62 ± 45.94 mm^3. Besides, in the experiment with Panc-1 cells, the “inhibitory rate on tumor Day 24” value turned out to be 66.1%. In the experiment on Panc-1 cells, the “Inhibition on tumor growth, in words” value is reported as “greatly improved”. Also, the “Maximal scar radius observed by pathological staining (pixel)” value in experiment [7] was 332 ± 124 pixel. The “Treatment effect on scar radius and inhibition of macrophage, in words” value in [7] was “greatly improved treatment effect on scar radius and inhibition of macrophage”. In the experiment on macrophage, the “F4/80+ cells among CD45+ cells (%)” value is 7.1 ± 1.4%.
Consider `COCCOCCOCCOCCOCCOCC(=O)N[C@H](C)C(=O)N[C@H](C)C(=O)N[C@H](CC(N)=O)C(=O)Nc1ccc(COC(=O)N2[C@H]3[C@@H]2CN2C4=C(C(=O)C(N)=C(C)C4=O)[C@H](COC(N)=O)[C@]32OC)cc1` [Compound E2], for which, in the experiment on Panc-1 cells, the “Size of tumor (mm^3) Day 10” value is recorded as 60.17 ± 30.26 mm^3, the “inhibitory rate on tumor Day 10” value turned out to be 36.4%, the “Size of tumor (mm^3) Day 24” value is reported as 42.39 ± 62.24 mm^3 and the “inhibitory rate on tumor Day 24” value is listed as 83.01%. The “Inhibition on tumor growth, in words” value in the experiment on Panc-1 cells is “greatly improved”. For the same compound, in experiment [7], the “Maximal scar radius observed by pathological staining (pixel)” value is recorded as 348 ± 146 pixel; the “Treatment effect on scar radius and inhibition of macrophage, in words” value was “greatly improved treatment effect on scar radius and inhibition of macrophage”. For the same compound, the “F4/80+ cells among CD45+ cells (%)” value in the experiment with macrophage is recorded as 7.7 ± 1.7%.
As for `CO[C@@]12[C@H](COC(N)=O)C3=C(C(=O)C(C)=C(N)C3=O)N1C[C@@H]1N[C@@H]12` [mitomycin, reference compound], in the experiment with Panc-1 cells, the “Size of tumor (mm^3) Day 10” value was 118.85 ± 36.47 mm^3, the “inhibitory rate on tumor Day 10” value amounted to 7.5%, the “Size of tumor (mm^3) Day 24” value is listed as 249.54 ± 95.46 mm^3 and the “inhibitory rate on tumor Day 24” value came out at 27.9%. Moreover, the “Maximal scar radius observed by pathological staining (pixel)” value in [7] was 953 ± 249 pixel. In addition, the “F4/80+ cells among CD45+ cells (%)” value with macrophage was 14.6 ± 2.4%.

The record behind these values is patent US10682371B2, “Small molecule conjugates specifically activated in tumor microenvironment for targeting and use thereof” (priority 2014, dated 2020).
